Source: patent US11008572B2, “Methods and compositions for modulating splicing” (SKYHAWK THERAPEUTICS, INC., priority 2017, dated 2021)

Tests used:
A-673 cells = assay: Cell viability, crystal violet staining; type: cell-based; details: Homo sapiens, A673, cell viability, read-out: A-673 IC50 (nM) Cell viability
In short: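 Readout is absorbance at 570 nm of crystal violet, taken up in 0.1 M sodium citrate in 50% ethanol after staining with 0.5% dye in 25% methanol. Plates held 5×10^3 cells per well, and compounds were added one day after seeding for 72 hours. Data are relative to vehicle, mean±SE.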

[1] = system: FOXM1^A2 mRNA and FOXM1^BC mRNA; assay: Splicing assay (FOXM1), qPCR of isoform mRNAs; type: cell-based; details: for IC50: FoxM1 BC mRNA decrease (exon included), read-out: Splice IC50 (nM) FoxM1 BC mRNA decrease (exon included); for EC50: read-out: Splice EC50 (nM) FoxM1 A mRNA increase (exon excluded)
Procedure: Various cells lines were treated with the SMSMs described herein. RNA was then isolated, cDNA synthesized, qPCR performed and the levels of various mRNA targets of the SMSMs were determined. In some instances, RNA was isolated, cDNA synthesized, qPCR performed and the levels of mRNA isoforms in the various cell samples were determined.
On the day of the experiment, a 96-well plate was seeded with the cell lines of interest. The cells were diluted with full growth media to a concentration of 2.0×10^5 cells/mL and 100 μL of cells were added to each well (20,000 cells per well). The cells were treated with a compound immediately after plating.
The compounds were then added to the cell plate using the HP compound dispenser. In the initial experiment, a top concentration of 10 μM and an 8 point 4-fold dilution scheme was used. The stock compounds were made at a concentration of 5 mM, and the DMSO concentration was set to 0.2%. DMSO was used to normalize all the compound-containing wells and the untreated cells.
The treated cells were incubated at 37° C. in a 5% CO2 incubator for the desired amount of time. Plates were placed in a plastic bag with a wet paper towel to prevent evaporation.
RNA was isolated using the Cells to CT kit (ThermoFisher, AM1728). The cells were washed once with 100 μL cold PBS. 50 μL of lysis buffer was added to each well/tube (49.5 μL lysis buffer+0.5 μL DNase I per well/tube). The lysis reaction was mixed and incubated at room temperature for 5 minutes. 5 μL of stop solution was added directly into each cell lysis reaction and mixed by pipetting up and down 5 times. The plates/tubes were incubated at room temperature for 2 minutes then placed on ice if the cDNA synthesis was to be performed immediately. Otherwise, the plates/tubes were stored at −80° C. cDNA synthesis reactions were then performed. Reverse Transcription (RT) Master mix was prepared according to the table below.
40 μL RT master mix was added to PCR tubes or plate wells. 10 μL of RNA was added to each tube/well. The RT thermal cycler program was then run and tubes or plate wells were incubated at 37° C. for 1 hour, then at 95° C. for 5 minutes to deactivate the enzyme.
The qPCR was performed using a QuantStudio 6 instrument (ThermoFisher) and the following cycling conditions and according to the tables below. All samples and standards were analyzed in triplicate. Cycle 1: 2 minutes at 50° C. Cycle 2: 10 minutes at 95° C. Cycle 3 (repeat 40 times): 15 seconds at 95° C., 1 minute at 60° C.
The determined isoform 2and isoform 1quantities were then be used to determine the isoform 2: […] at the various compound concentrations. The PPIA quantities were used in the normalization to account of cell proliferation effects of the compounds.
The dilution necessary to make the top standard is calculated. A top concentration 200,000,000 copies/μL of the stock plasmid was prepared in TE buffer. A series of 10-fold dilutions, also in TE, were then made. A total of 5 μL of each standard was used in a qPCR well to generate samples containing 109 copies, […], 10^7copies, 10^6 copies, 10^5 copies, 10^4 copies, 10^3 copies, 10^2 copies, 10^1copies, and 0 copies.
An assay to measure the FOXM1^A2 mRNA and FOXM1^BC mRNA, or MADD^WT (isoform 4) mRNA and MADD^Ex16 (isoform 3) mRNA, or MAPTau^4R mRNA and MAPTau^3R mRNA simultaneously in cell wells was performed. The RNA values were measured relative to DMSO control and also included a housekeeping gene, PPIA to ensure data was consistent. The mRNA values were measured after 24 hours of incubation with the SMSM compounds.

SMILES | IC50 (A-673 cells) [nM] | IC50 [1] [nM] | EC50 [1] [nM]
Oc1cc(-c2cn[nH]c2)ccc1-c1ccc(N2CCC3CNCCC32)nn1 (stereo not drawn) [compound 131, 2-(6-(octahydro-1H-pyrrolo[3,2-c]pyridin-1-yl)pyridazin-3-yl)-5-(1H-pyrazol-4-yl)phenol] | > 1000 | 251 to 500 | 101 to 250
COCCN(c1ccc(-c2ccc(-c3cn[nH]c3)cc2O)nn1)C1CC(C)(C)NC(C)(C)C1 [compound 133, 2-(6-((2-methoxyethyl)(2,2,6,6-tetramethylpiperidin-4-yl)amino)pyridazin-3-yl)-5-(1H-pyrazol-4-yl)phenol] | > 1000 | > 1000 | 501 to 1000
CN(c1cnc(-c2ccc(-c3cn[nH]c3)cc2O)nc1)C1CC(C)(C)NC(C)(C)C1 [compound 134, 2-(5-(methyl(2,2,6,6-tetramethylpiperidin-4-yl)amino)pyrimidin-2-yl)-5-(1H-pyrazol-4-yl)phenol] | > 1000 | > 1000 | > 1000
CN(c1ccc(-c2ccc(-c3cn[nH]c3)cc2O)nc1)C1CC(C)(C)NC(C)(C)C1 [compound 135, 2-(5-(methyl(2,2,6,6-tetramethylpiperidin-4-yl)amino)pyridin-2-yl)-5-(1H-pyrazol-4-yl)phenol] | > 1000 | > 1000 | > 1000
CN(c1cnc(-c2ccc(-c3cn[nH]c3)cc2O)cn1)C1CC(C)(C)NC(C)(C)C1 [compound 136, 2-(5-(methyl(2,2,6,6-tetramethylpiperidin-4-yl)amino)pyrazin-2-yl)-5-(1H-pyrazol-4-yl)phenol] | 501 to 1000 | 251 to 500 | 101 to 250
CN(c1ccc(-c2ccc(-c3cn[nH]c3)cc2O)nn1)[C@H]1[C@@H]2CNC[C@@H]21 [compound 137, 2-(6-(((1R,5S,6s)-3-azabicyclo[3.1.0]hexan-6-yl)(methyl)amino)pyridazin-3-yl)-5-(1H-pyrazol-4-yl)phenol] | > 1000 | > 1000 | > 1000
CN(c1ccc(-c2ccc(-c3cn[nH]c3)cc2O)nn1)[C@H]1C[C@H]2CC[C@@H](C1)N2 [compound 139, 2-(6-(((1R,3r,5S)-8-azabicyclo[3.2.1]octan-3-yl)(methyl)amino)pyridazin-3-yl)-5-(1H-pyrazol-4-yl)phenol] | > 1000 | > 1000 | > 1000
Oc1cc(-c2cn[nH]c2)ccc1-c1ccc(O[C@@H]2C[C@H]3CC[C@@H](C2)N3)nn1 [compound 140, 2-(6-(((1R,3s,5S)-8-azabicyclo[3.2.1]octan-3-yl)oxy)pyridazin-3-yl)-5-(1H-pyrazol-4-yl)phenol] | 101 to 250 | 10 to 100 | 10 to 100
Oc1cc(-c2cn[nH]c2)ccc1-c1ccc(O[C@H]2C[C@H]3CC[C@@H](C2)N3)nn1 [compound 141, 2-(6-(((1R,3r,5S)-8-azabicyclo[3.2.1]octan-3-yl)oxy)pyridazin-3-yl)-5-(1H-pyrazol-4-yl)phenol] | > 1000 | > 1000 | > 1000
CN(c1ccc(-c2ccc(-c3cn[nH]c3)cc2O)nn1)[C@H]1C[C@H]2CNC[C@H]2C1 [compound 142, 2-(6-(methyl((3R,5r,6S)-octahydrocyclopenta[c]pyrrol-5-yl)amino)pyridazin-3-yl)-5-(1H-pyrazol-4-yl)phenol] | > 1000 | 501 to 1000 | 251 to 500
CN(c1ccc(-c2ccc(-c3cn[nH]c3)cc2O)nn1)[C@@H]1C[C@H]2CNC[C@H]2C1 [compound 143, 2-(6-(methyl((3R,5s,6S)-octahydrocyclopenta[c]pyrrol-5-yl)amino)pyridazin-3-yl)-5-(1H-pyrazol-4-yl)phenol] | > 1000 | 501 to 1000 | 251 to 500
CN(c1ccc(-c2ccc(-c3cn[nH]c3)cc2O)nn1)[C@@H]1[C@@H]2CC[C@H]1CNC2 [compound 144, 2-(6-(((1R,5S,8s)-3-azabicyclo[3.2.1]octan-8-yl)(methyl)amino)pyridazin-3-yl)-5-(1H-pyrazol-4-yl)phenol] | 501 to 1000 | > 1000 | > 1000
CN(c1ccc(-c2ccc(-c3cn[nH]c3)cc2O)nn1)[C@H]1[C@@H]2CC[C@H]1CNC2 [compound 145, 2-(6-(((1R,5S,8r)-3-azabicyclo[3.2.1]octan-8-yl)(methyl)amino)pyridazin-3-yl)-5-(1H-pyrazol-4-yl)phenol] | > 1000 | > 1000 | > 1000
CN(c1ccc(-c2ccc(-c3cn[nH]c3)cc2O)nn1)[C@H]1C[C@H]2C[C@@H]1CN2 [compound 146, 2-(6-(((1R,4R,5S)-2-azabicyclo[2.2.1]heptan-5-yl)(methyl)amino)pyridazin-3-yl)-5-(1H-pyrazol-4-yl)phenol] | > 1000 | 251 to 500 | 101 to 250
CN(c1ccc(-c2ccc(-c3cn[nH]c3)cc2O)nn1)[C@@H]1C[C@@H]2C[C@H]1CN2 [compound 147, 2-(6-(((1S,4S,5R)-2-azabicyclo[2.2.1]heptan-5-yl)(methyl)amino)pyridazin-3-yl)-5-(1H-pyrazol-4-yl)phenol] | > 1000 | 251 to 500 | 101 to 250
CN(c1ccc(-c2ccc(-c3cn[nH]c3)cc2O)nn1)[C@@H]1C[C@H]2C[C@@H]1CN2 [compound 148, 2-(6-(((1R,4R,5R)-2-azabicyclo[2.2.1]heptan-5-yl)(methyl)amino)pyridazin-3-yl)-5-(1H-pyrazol-4-yl)phenol] | > 1000 | > 1000 | > 1000
CN(c1ccc(-c2ccc(-c3cn[nH]c3)cc2O)nn1)[C@H]1C[C@@H]2C[C@H]1CN2 [compound 149, 2-(6-(((1S,4S,5S)-2-azabicyclo[2.2.1]heptan-5-yl)(methyl)amino)pyridazin-3-yl)-5-(1H-pyrazol-4-yl)phenol] | > 1000 | > 1000 | 251 to 500
C[C@]12CC[C@](C)(C[C@H](Oc3ccc(-c4ccc(-c5cn[nH]c5)cc4O)nn3)C1)N2 [compound 153, 2-(6-(((1R,3r,5S)-1,5-dimethyl-8-azabicyclo[3.2.1]octan-3-yl)oxy)pyridazin-3-yl)-5-(1H-pyrazol-4-yl)phenol] | > 1000 | > 1000 | > 1000
CN(c1ccc(-c2ccc(-c3cn[nH]c3)cc2O)nn1)[C@H]1C[C@H]2COC[C@@H](C1)N2 [compound 155, 2-(6-(((1R,5S,7s)-3-oxa-9-azabicyclo[3.3.1]nonan-7-yl)(methyl)amino)pyridazin-3-yl)-5-(1H-pyrazol-4-yl)phenol] | > 1000 | > 1000 | > 1000
Oc1cc(-c2cn[nH]c2)ccc1-c1ccc(O[C@H]2C[C@H]3COC[C@@H](C2)N3)nn1 [compound 158, 2-(6-(((1R,5S,7s)-3-oxa-9-azabicyclo[3.3.1]nonan-7-yl)oxy)pyridazin-3-yl)-5-(1H-pyrazol-4-yl)phenol] | > 1000 | > 1000 | > 1000
Oc1cc(-c2cn[nH]c2)ccc1-c1ccc(O[C@@H]2C[C@H]3COC[C@@H](C2)N3)nn1 [compound 159, 2-(6-(((1R,5S,7r)-3-oxa-9-azabicyclo[3.3.1]nonan-7-yl)oxy)pyridazin-3-yl)-5-(1H-pyrazol-4-yl)phenol] | 501 to 1000 | 501 to 1000 | 251 to 500
